System: 8XTBD luciferase reporter (YAP reporter) in HEK293T cells
Test: YAP Reporter Assay
Format: cell-based
Conditions: Homo sapiens, HEK-293T; HEK293T cells stably transfected with 8XTBD luciferase reporter and pRLTK; 24-hr incubation; top concentration 3 μM; read-out: Firefly Luciferase IC50
Summary of the method: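 HEK293T cells stably carrying 8XTBD firefly luciferase and TK-renilla (3×10^3 cells/well) dosed 3-4 h after plating with compounds from 3 μM final, 1:3 dilution, 10 points, quadruplicates. After 24 h at 37° C, Dual-Glo readings gave IC50 and maximum inhibition reported separately for firefly and renilla.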

SMILES	IC50
NC(=O)/C=C/CCCNC(=O)c1ccc2c(-c3ccc(C(F)(F)F)cc3)cccc2c1 [Compound 202, N-[(E)-6-amino-6-oxo-hex-4-enyl]-5-[4-(trifluoromethyl)phenyl]naphthalene-2-carboxamide]	0.1 to 1 µM
CC(C)NC(=O)c1ccc2c(-c3ccc(C(F)(F)F)cc3)ccc(N)c2c1 [Compound 16, 8-amino-N-isopropyl-5-(4-(trifluoromethyl)phenyl)-2-naphthamide]	< 0.1 µM
C[C@H](CN(C)C)NC(=O)c1ccc2c(-c3ccc(C(F)(F)F)cc3)cccc2c1 [Compound 65, (R)—N-(1-(dimethylamino)propan-2-yl)-5-(4-(trifluoromethyl)phenyl)-2-naphthamide]	1 to 3 µM
C[C@H](CO)NC(=O)c1cnc2c(-c3ccc(C(F)(F)F)cc3)cccc2n1 [Compound 267, (R)—N-(1-hydroxypropan-2-yl)-5-(4-(trifluoromethyl)phenyl)quinoxaline-2-carboxamide]	0.1 to 1 µM
N#C/C=C\CCNC(=O)c1ccc2c(-c3ccc(C(F)(F)F)cc3)cccc2c1 [Compound 216, N—[(Z)-4-cyanobut-3-enyl]-5-[4-(trifluoromethyl)phenyl]naphthalene-2-carboxamide]	0.1 to 1 µM
C[C@@H](NC(=O)c1ccc2c(-c3ccc(C(F)(F)F)cc3)cccc2c1)C1CN(C2CC2)C1 [Compound 320, (R)-N-(1-(1-cyclopropylazetidin-3-yl)ethyl)-5-(4-(trifluoromethyl)phenyl)-2-naphthamide]	0.1 to 1 µM
CCc1ccc(-c2ccc(C(F)(F)F)cc2)c2ccc(C(=O)NC(C)C)cc12 [Compound 21, 8-ethyl-N-isopropyl-5-[4-(trifluoromethyl)phenyl]naphthalene-2-carboxamide]	< 0.1 µM
C[C@H](NC(=O)c1ccc2c(-c3ccc(C(F)(F)F)cc3)cccc2c1)c1cccc2cn[nH]c12 [Compound 183, N-[(1S)-1-(1H-indazol-7-yl)ethyl]-5-[4-(trifluoromethyl)phenyl]naphthalene-2-carboxamide]	1 to 3 µM
CCc1cc(-c2ccc(C(F)(F)F)cc2)c2ccc(C(=O)NC(C)C)cc2c1 [Compound 47, 7-ethyl-N-isopropyl-5-(4-(trifluoromethyl)phenyl)-2-naphthamide]	< 0.1 µM
C[C@H](NC(=O)c1ccc2c(-c3ccc(C(F)(F)F)cc3)cccc2c1)c1nccn1C [Compound 253, (S)—N-(1-(1-methyl-1H-imidazol-2-yl)ethyl)-5-(4-(trifluoromethyl)phenyl)-2-naphthamide]	1 to 3 µM
NS(=O)(=O)NC(=O)c1ccc2c(-c3ccc(C(F)(F)F)cc3)cccc2c1 [Compound 29, N-sulfamoyl-5-(4-(trifluoromethyl)phenyl)-2-naphthamide]	0.1 to 1 µM
COc1cc(CNC(=O)c2ccc3c(-c4ccc(C(F)(F)F)cc4)cccc3c2)ccn1 [Compound 210, N-((2-methoxypyridin-4-yl)methyl)-5-(4-(trifluoromethyl)phenyl)-2-naphthamide]	0.1 to 1 µM
O=C(NCCC=CCO)c1ccc2c(-c3ccc(C(F)(F)F)cc3)cccc2c1 (stereo in doubt) [Compound 245, N-[(E)-5-hydroxypent-3-enyl]-5-[4-(trifluoromethyl)phenyl]naphthalene-2-carboxamide]	0.1 to 1 µM
CC(C)NC(=O)c1ccc2c(-c3ccc(C(F)(F)F)cc3)cc(Cl)cc2c1 [Compound 36, 7-chloro-N-isopropyl-5-(4-(trifluoromethyl)phenyl)-2-naphthamide]	< 0.1 µM
CC(C)NC(=O)c1ccc2c(-c3ccc(C(F)(F)F)cc3)cc3onnc3c2c1 [Compound 35, N-isopropyl-5-[4-(trifluoromethyl)phenyl]benzo[e][1,2,3]benzoxadiazole-8-carboxamide]	0.1 to 1 µM
COCC(C)(C)NC(=O)c1ccc2c(-c3ccc(C(F)(F)F)cc3)cccc2c1 [Compound 212, N-(1-methoxy-2-methylpropan-2-yl)-5-(4-(trifluoromethyl)phenyl)-2-naphthamide]	< 0.1 µM
CC(C)NC(=O)c1cnc2c(-c3ccc(C(F)(F)F)cc3)cccc2n1 [Compound 268, N-Isopropyl-5-(4-(trifluoromethyl)phenyl)quinoxaline-2-carboxamide]	0.1 to 1 µM
C[C@H](CCN(C)C)NC(=O)c1cnc2c(-c3ccc(C(F)(F)F)cc3)cccc2c1 [Compound 319, N-[(1R)-3-(Dimethylamino)-1-methyl-propyl]-8-[4-(trifluoromethyl)phenyl]quinoline-3-carboxamide]	0.1 to 1 µM
O=C(NCc1ccnc(COc2c(F)cccc2F)n1)c1ccc2c(-c3ccc(C(F)(F)F)cc3)cccc2c1 [Compound 172, N-((2-((2,6-difluorophenoxy)methyl)pyrimidin-4-yl)methyl)-5-(4-(trifluoromethyl)phenyl)-2-naphthamide]	1 to 3 µM
O=C(NCCCCCl)c1ccc2c(-c3ccc(C(F)(F)F)cc3)cccc2c1 [Compound 249, N-(4-chlorobutyl)-5-(4-(trifluoromethyl)phenyl)-2-naphthamide]	0.1 to 1 µM

SMILES	IC50
C[C@H](NC(=O)c1ccc2c(-c3ccc(C(F)(F)F)cc3)cccc2c1)c1cnccn1 [Compound 282, (S)—N-(1-(pyrazin-2-yl)ethyl)-5-(4-(trifluoromethyl)phenyl)-2-naphthamide]	0.1 to 1 µM
O=C(NCc1cccc(F)n1)c1ccc2c(-c3ccc(C(F)(F)F)cc3)cccc2c1 [Compound 190, N-((6-fluoropyridin-2-yl)methyl)-5-(4-(trifluoromethyl)phenyl)-2-naphthamide]	0.1 to 1 µM
C[C@@H](NC(=O)c1ccc2c(-c3ccc(C(F)(F)F)cc3)cccc2c1)c1cccc2nc[nH]c12 [Compound 173, N-[(1R)-1-(3H-benzimidazol-4-yl)ethyl]-5-[4-(trifluoromethyl)phenyl]naphthalene-2-carboxamide]	0.1 to 1 µM
C[C@@H](NC(=O)c1ccc2c(-c3ccc(C(F)(F)F)cc3)cccc2c1)c1cccc2ccc(=O)[nH]c12 [Compound 177, N-[(1R)-1-(2-oxo-1H-quinolin-8-yl)ethyl]-5-[4-(trifluoromethyl)phenyl]naphthalene-2-carboxamide]	< 0.1 µM
C[C@@H](CO)NC(=O)c1ccc2c(-c3ccc(C(F)(F)F)cc3)cccc2c1 [Compound 84, (S)—N-(1-hydroxypropan-2-yl)-5-(4-(trifluoromethyl)phenyl)-2-naphthamide]	< 0.1 µM
C#Cc1cc(-c2ccc(C(F)(F)F)cc2)c2ccc(C(=O)NC(C)C)cc2c1 [Compound 38, 7-ethynyl-N-isopropyl-5-(4-(trifluoromethyl)phenyl)-2-naphthamide]	< 0.1 µM
COc1cc(-c2ccc(C(F)(F)F)cc2)c2ccc(C(=O)N[C@H](C)c3ccccn3)cc2c1 [Compound 293, (R)-7-Methoxy-N-(1-(pyridin-2-yl)ethyl)-5-(4-(trifluoromethyl)phenyl)-2-naphthamide]	< 0.1 µM
COC(=O)c1ccc2c(-c3ccc(C(F)(F)F)cc3)cn(C)c(=O)c2c1 [Compound 15, Methyl 2-methyl-1-oxo-4-[4-(trifluoromethyl)phenyl]isoquinoline-7-carboxylate]	0.1 to 1 µM
CC(C)(NC(=O)c1ccc2c(-c3ccc(C(F)(F)F)cc3)cccc2c1)c1ccccn1 [Compound 262, N-(2-(pyridin-2-yl)propan-2-yl)-5-(4-(trifluoromethyl)phenyl)-2-naphthamide]	0.1 to 1 µM
C[C@@H](NC(=O)c1ccc2c(-c3ccc(C(F)(F)F)cc3)cccc2c1)c1nccn1C [Compound 254, (R)—N-(1-(1-methyl-1H-imidazol-2-yl)ethyl)-5-(4-(trifluoromethyl)phenyl)-2-naphthamide]	0.1 to 1 µM
COc1cc(-c2ccc(C(F)(F)F)cc2)c2ncc(C(=O)NC(CO)c3ccccn3)cc2c1 (stereo not drawn) [Compound 105, N-[2-hydroxy-1-(2-pyridyl)ethyl]-6-methoxy-8-[4-(trifluoromethyl)phenyl]quinoline-3-carboxamide]	< 0.1 µM
N#CCCNC(=O)c1ccc2c(-c3ccc(C(F)(F)F)cc3)cccc2c1 [Compound 114, N-(2-cyanoethyl)-5-(4-(trifluoromethyl)phenyl)-2-naphthamide]	< 0.1 µM
CC(C)NC(=O)c1cnc2c(-c3ccc(C(F)(F)F)cc3)cc(Cl)c(Cl)c2c1 [Compound 94, 5,6-Dichloro-N-isopropyl-8-(4-(trifluoromethyl)phenyl)quinoline-3-carboxamide]	< 0.1 µM
C[C@H](CN1CCCC1)NC(=O)c1ccc2c(-c3ccc(C(F)(F)F)cc3)cccc2c1 [Compound 67, (R)—N-(1-(pyrrolidin-1-yl)propan-2-yl)-5-(4-(trifluoromethyl)phenyl)-2-naphthamide]	0.1 to 1 µM
O=C(NCc1cccc(COc2c(F)cccc2F)n1)c1ccc2c(-c3ccc(C(F)(F)F)cc3)cccc2c1 [Compound 187, N-((6-((2,6-difluorophenoxy)methyl)pyridin-2-yl)methyl)-5-(4-(trifluoromethyl)phenyl)-2-naphthamide]	0.1 to 1 µM
O=C(O)c1ccc2c(-c3ccc(C(F)(F)F)cc3)cncc2c1 [Compound 336, 4-[4-(trifluoromethyl)phenyl]isoquinoline-7-carboxylic Acid]	0.1 to 1 µM
CC(C)NC(=O)c1ccc2c(-c3ccc(C(F)(F)F)cc3)cc(N)c(O)c2c1 [Compound 95, 7-amino-8-hydroxy-N-isopropyl-5-(4-(trifluoromethyl)phenyl)-2-naphthamide]	0.1 to 1 µM
O=C(O)c1ccc2c(-c3ccc(C(F)(F)F)cc3)cccc2n1 [Compound 333, 5-(4-(trifluoromethyl)phenyl)quinoline-2-carboxylic Acid]	0.1 to 1 µM
O=C(NC(CO)c1ccccn1)c1cnc2c(-c3ccc(C(F)(F)F)cc3)cccc2c1 (stereo not drawn) [Compound 260, N-[2-hydroxy-1-(2-pyridyl)ethyl]-8-[4-(trifluoromethyl)phenyl]quinoline-3-carboxamide]	< 0.1 µM

— patent publication US11866431B2, “Bicyclic compounds” (Vivace Therapeutics, Inc., priority 2018, dated 2024)
